# Measurements taken from patent US4337256A, “1-Phenyl isoquinoline-5-acetic acid compounds and analgesic compositions thereof” (priority 1978, dated 1982).
# Like-named read-outs stand apart in the source and are kept apart here.
# Key:
# platelet aggregation = test: Activity of inhibiting platelet aggregation (collagen-induced); format: cell-based, male Hartley guinea pig; conditions: Cavia porcellus, 2 min, read-out: ED50 (inhibition of platelet aggregation)
# Description: The citrated blood was centrifuged at a speed of 1,000 rpm for 10 minutes. The supernatant was collected to obtain a platelet-rich plasma. Separately, it was contrifuged at a speed of 3,000 rpm for 15 minutes, and the supernatant was collected to obtain a platelet-poor plasma. […] The platelet-rich plasma (250 μl) was placed in a cuvet, and preliminarily heated at 37° C. for 2 minutes, and then while stirring at a speed of 1,000 rpm, 31 μl of a test solution was added. The mixture was incubated for 2 minutes with stirring, and then 31 μl of a collagen solution was added, and the maximum aggregation rate of platelet was measured. The amount of the collagen applied was adjusted to the minimum effective amount which induced irreversible platelet aggregation. This amount was determined for each experiment. The percent inhibition of the test solution-applied group was determined in accordance with the following equation. From the percent inhibition, the ED50 value of the test compounds was calculated in accordance with the Litchfield-Wilcoxon method. Each test compound was dissolved in distilled water as a sodium salt.
# digestive organs = conditions: known agents, statement in words; cited from earlier work
# [1] = reported in J. Med. Chem. 1978, 21, 582-585; cited from earlier work
# [2] = test system: left hind paw edema (carrageenin); test: Anti-inflammatory activity: carrageenin-induced left hind paw edema; format: in vivo, male Wistar rats; conditions: Rattus norvegicus, po, p.o., 1 h before carrageenin, measured 3 h later, read-out: Percent inhibition (edema)
# Description: Male Wistar rats weighing 120 to 150 g which had been fasted for 24 hours were used in groups each consisting of 5 rats. In each group, the volumes of the left hind paw were measured by a volume differential meter (made by Ugo Basile Company), and each of the test compounds was suspended in an aqueous solution of 0.5% of carboxymethyl cellulose and 2.0% of Tween 80, and administered orally through a tube. After one hour from the administration, 0.1 ml of a 1% suspension of carrageenin in distilled water was subcutaneously injected into the plantar tissues of the left hind paw. Three hours later, the volumes of the left hind paw were again measured. The increase in volume of the left hind paw of each rat in each group (the volume of edema) was measured.
# [3] = test system: writhings (acetic acid) in the mice; test: Analgesic activity: acetic acid writhing test; format: in vivo, male mice (ddY); conditions: Mus musculus, po; p.o. 1 h before 0.6% acetic acid i.p.; parentheses show 95% confidence limits; read-out: ED50 (analgesic, writhing inhibition)
# Description: Male mice (ddY) weighing 18 to 22 g were used in groups each consisting of 10 mice. Each of the compounds was suspended in an aqueous solution of 0.5% of carboxymethyl cellulose and 2.0% of Tween 80, and administered orally through a tube. After one hour from the administration, 0.6% acetic acid was administered intraperitoneally in an amount of 0.1 ml per 10 g of body weight, and the number of writhings which occurred in the mice during a period of 20 minutes after the administration was measured. The percent inhibition was calculated from the following equation, and the ED50 values of the test compounds were calculated from the percent inhibition in accordance with the method of Litchfield-Wilcoxon.
# stomach mucosal membrane = test: Ulcerogenic activity: gastric ulceration; format: in vivo, male Wistar rats; conditions: p.o., 4 h
# Description: Each of the test compounds was orally administered by the same way as in the test on anti-inflammatory activity to male Wistar rats weighing 120 to 150 g which had been fasted for 24 hours. Four hours later, they were killed with ether.
# [4] = molecular target: T1, microsomes of bovine seminal vesicle (a prostaglandin synthesizing enzyme) (Bos taurus, UniProt O62664); test: Activity of inhibiting prostaglandin synthesis (prostaglandin E2 formed); format: biochemical; conditions: 37° C., 5 minutes, pH 8.0, 50 μM arachidonic acid; dissolved as a sodium salt; read-out: ED50 (inhibition of prostaglandin synthesis)
# T1 construct: a microsome fraction prepared from bovine seminal vesicle; from tissue; host or cells: bovine seminal vesicle, lyophilized microsome fraction
# T1 sequence (O62664 25-600): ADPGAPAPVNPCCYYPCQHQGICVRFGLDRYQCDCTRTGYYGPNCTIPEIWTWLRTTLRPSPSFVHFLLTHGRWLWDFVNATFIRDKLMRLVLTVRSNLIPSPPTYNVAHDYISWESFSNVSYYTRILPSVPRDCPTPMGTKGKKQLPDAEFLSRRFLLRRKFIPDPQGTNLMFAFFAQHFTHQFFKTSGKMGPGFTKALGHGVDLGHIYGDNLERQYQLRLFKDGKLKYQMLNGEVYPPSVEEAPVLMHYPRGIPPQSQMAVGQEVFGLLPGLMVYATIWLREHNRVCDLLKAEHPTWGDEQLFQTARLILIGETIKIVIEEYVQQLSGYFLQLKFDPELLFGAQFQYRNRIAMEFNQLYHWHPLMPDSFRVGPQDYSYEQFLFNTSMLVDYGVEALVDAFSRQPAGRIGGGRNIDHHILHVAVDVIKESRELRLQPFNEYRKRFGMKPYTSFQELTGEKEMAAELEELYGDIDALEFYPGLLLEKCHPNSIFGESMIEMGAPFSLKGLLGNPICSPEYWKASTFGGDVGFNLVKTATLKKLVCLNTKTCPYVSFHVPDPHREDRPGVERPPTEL
# Description: The activity of inhibiting prostaglandin synthesis was measured by adding a test compound, i.e. a substance having the activity of inhibiting prostaglandin synthesis, to a prostaglandin synthesizing reaction system shown below, and quantitatively determining to what extent synthesis of prostaglandin was inhibited.
# 100 mM tris-HCl buffer (pH=8.0),
# 0.0125 μCi/ml (14c)-arachidonic acid,
# 1 mg/ml, as protein, of microsomes of bovine seminal vesicle (a prostaglandin synthesizing enzyme obtained by lyophylizing a microsome fraction prepared from bovine seminal vesicle).
# The test compound was added to the reaction system to adjust the total amount to 1 ml. As a control, 1 ml of the above reaction system without addition of the test compound was provided. Each of these was incubated with shaking at 37° C. for 5 minutes, and 0.5 ml of 0.3 M citric acid was added to stop the reaction. The prostaglandin formed was extracted with ethyl acetate, fractionated by thin-layer chromatography. The radioactivity of each fraction was measured by a liquid scintillation counter. The amount of prostaglandin E2 formed in the group to which the test compound had been applied was measured, and the percent inhibition was calculated in accordance with the following equation. From the percent inhibition, the ED50 value of the test compounds was calculated in accordance with the Litchfield-Wilcoxon method. […]
# Toxicity test (LD50) = conditions: mouse, in vivo; oral, observed for 1 week; parentheses show 95% confidence limits
# Description: Each of the test compounds was suspended in a physiological saline solution having dissolved therein 2% of Tween 80, and orally administered through a tube to groups of ddY mice (male: 19 to 22 g) each group consisting of 6 mice. The mice were then observed for 1 week. The LD50 values were calculated from the lethality in accordance with the method of Litchfield-Wilcoxon.
smiles,measurement,setting,value
"CC(=O)Oc1ccccc1C(=O)O [Aspirin, reference compound]",IC50,platelet aggregation; Platelet,15.8 µM
same,troubles in the digestive organs,digestive organs,fairly heavy troubles in the digestive organs
NC(=O)Cc1cc2ccccc2c(-c2ccc(Cl)cc2)n1 [1-(4-chlorophenyl)-3-carbamoylmethyl isoquinoline],anti-inflammatory and analgesic activities,[1],has anti-inflammatory and analgesic activities
"O=C(O)Cc1cccc2c(-c3ccc(Cl)cc3)nccc12 [A, 1-(4-chlorophenyl)isoquinoline-5-acetic acid]",inhibition in vivo at 0.3 mg/kg,[2]; 0.3 mg/kg,22.7 ± 6.1%
same,inhibition in vivo at 1 mg/kg,[2]; 1 mg/kg,27.3 ± 7.4%
same,inhibition in vivo at 3 mg/kg,[2]; 3 mg/kg,44.6 ± 5.8%
same,ED50,[3],1.4 mg/kg
same,Gastric ulceration: bleeding at the mucosal membrane,stomach mucosal membrane; 10 mg/kg,0/10
same,Gastric ulceration: damage beneath the mucosal membrane,stomach mucosal membrane; 10 mg/kg,0/10
same,Gastric ulceration: bleeding at the mucosal membrane,stomach mucosal membrane; 30 mg/kg,0/5
same,Gastric ulceration: damage beneath the mucosal membrane,stomach mucosal membrane; 30 mg/kg,0/5
same,IC50,[4],0.82 µM
same,IC50,"platelet aggregation; collagen-induced, platelet-rich plasma, dissolved as a sodium salt, parentheses show 95% confidence limits",1.9 µM
same,LD50 at 168 h,Toxicity test (LD50),182 mg/kg
